Type in all cases: biochemical
Assay [1] has as its target T1, Recombinant human calpain I (Homo sapiens, UniProt P07384).
T1 construct: made in house
T1 sequence (P07384 1-714): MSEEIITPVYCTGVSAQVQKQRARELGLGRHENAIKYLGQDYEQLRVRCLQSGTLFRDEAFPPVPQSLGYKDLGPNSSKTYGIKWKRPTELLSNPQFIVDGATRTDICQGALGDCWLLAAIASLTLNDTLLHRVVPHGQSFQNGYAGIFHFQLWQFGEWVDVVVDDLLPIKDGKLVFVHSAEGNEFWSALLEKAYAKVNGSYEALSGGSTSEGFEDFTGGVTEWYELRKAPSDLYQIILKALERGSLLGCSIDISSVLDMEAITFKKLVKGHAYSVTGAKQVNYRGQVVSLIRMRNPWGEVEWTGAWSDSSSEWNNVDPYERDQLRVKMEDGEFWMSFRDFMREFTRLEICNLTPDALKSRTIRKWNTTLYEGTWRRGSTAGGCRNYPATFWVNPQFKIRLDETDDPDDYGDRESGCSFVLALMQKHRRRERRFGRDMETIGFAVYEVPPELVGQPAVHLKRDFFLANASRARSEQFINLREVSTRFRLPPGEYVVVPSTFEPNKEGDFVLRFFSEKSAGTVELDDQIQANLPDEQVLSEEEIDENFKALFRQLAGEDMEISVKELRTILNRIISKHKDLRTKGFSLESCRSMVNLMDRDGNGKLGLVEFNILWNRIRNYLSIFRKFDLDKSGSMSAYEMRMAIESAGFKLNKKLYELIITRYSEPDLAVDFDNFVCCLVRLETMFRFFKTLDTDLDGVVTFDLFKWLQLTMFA
As to the kind of experiment: Inhibition of calpain I (Succ-Leu-Tyr-MNA hydrolysis). The settings on record: Tables 2-4; pH 7.5. As for the experimental part: (§1) To evaluate inhibitory activity, stock solutions (40 times concentrated) of each compound to be tested were prepared in 100% anhydrous DMSO and 5 μl of each inhibitor preparation was aliquoted into each of three wells of a 96-well plate. Recombinant human calpain I, prepared by the method of Meyer et al. (Biochem. J. 1996, 314: 511-519), was diluted into assay buffer (i.e., 50 mM Tris, 50 mM NaCl, 1 mM EDTA, 1 mM EGTA, and 5 mM β-mercaptoethanol, pH 7.5, including 0.2 mM Succ-Leu-Tyr-MNA), and 175 μl was aliquoted into the same wells containing the independent inhibitor stocks as well as to positive control wells containing 5 μl DMSO, but no compound. To start the reaction, 20 μl of 50 mM CaCl2 in assay buffer was added to all wells of the plate, excepting three, which were used as background signal baseline controls. Substrate hydrolysis was monitored every 5 minutes for a total of 30 minutes. Substrate hydrolysis in the absence of inhibitor was linear for up to 15 minutes.
(§2) Inhibition of calpain I activity was calculated as the percent decrease in the rate of substrate hydrolysis in the presence of inhibitor relative to the rate in its absence. Comparison between the inhibited and control rates was made within the linear range for substrate hydrolysis. The IC50 S of inhibitors (concentration yielding 50% inhibition) were determined from the percent decrease in rates of substrate hydrolysis in the presence of five to seven different concentrations of the test compound. The results were plotted as percent inhibition versus log inhibitor concentration, and the IC50 was calculated by fitting the data to the four-parameter logistic equation shown below using the program GraphPad Prism (GraphPad Software, Inc., San Diego, Calif.).
The parameters a, b, c, and d are defined as follows: a is % inhibition in the absence of inhibitor, b is the slope, c is the IC50, and d is the % inhibition at an infinite concentration of inhibitor.

Another assay has as its target T2, cathepsin B (Homo sapiens, UniProt P07858).
T2 construct: purchased Calbiochem 219364
Put plainly: Inhibition of cathepsin B (Cbz-Phe-Arg-AMC hydrolysis). Conditions: Table 6; pH 6.0; read-out: Cath. B IC50. On the procedure:
as §1, §2
Additionally, the order of reagents added to the plate was altered because the enzyme is consitutively active. Following inhibitor addition to the plates, appropriate 2× concentrated stock dilutions of the enzyme preparations were made in assay buffer and 100 μl added to each well. The assay was initiated by addition of 100 μl of 2× concentrated stock dilution of substrate in assay buffer. Substrate hydrolysis was monitored using a Fluoriskan II (ex=390 nm; em=460 nm).

A further assay addresses T3, α-chymotrypsin (Bos taurus, UniProt P00766).
T3 construct: purchased Sigma Chem. Co. C-3142
As to the kind of experiment: Inhibition of serine protease α-chymotrypsin (Succ-Ala-Ala-Pro-Phe-AMC hydrolysis). The settings on record: Table 6; pH 7.5. On the procedure: as §1, §2
Additionally, because α-chymotrypsin is not a calcium sensitive enzyme and is constitutively active, following addition of inhibitor stocks to the 96 well plates, 100 μl of a 2-fold concentrated stock of enzyme in dilution buffer was first added and the reaction was started by addition of 100 μl of a 2-fold concentrated stock of substrate in assay buffer. Substrate hydrolysis was monitored every 5 minutes up to 30 minutes using a Fluoroskan II (ex=390 nm em=460 nm).

Our source for the IC50 values is patent publication US6083944A, “Quinoline-containing α-ketoamide cysteine and serine protease inhibitors” (Cephalon, Inc., priority 1998, dated 2000).

Usually IC50 stands for the point on the concentration scale where inhibition reaches its midpoint.

For the compound `O=C(NOCc1ccccc1)C(=O)C(Cc1ccccc1)NC(=O)c1cc(C#Cc2ccccc2)nc2ccccc12` (stereo not shown) [Example 104], the IC50 in assay [1] was 60 nM; at cathepsin B it was 330 nM; at α-chymotrypsin, 1160 nM.
Consider `O=C(NCCNS(=O)(=O)c1ccccc1)C(=O)[C@H](Cc1ccccc1)NC(=O)c1cc(C#Cc2ccccc2)nc2ccccc12` [Example 96], for which the values for the IC50 (in assay [1]; at cathepsin B; at α-chymotrypsin) were 29 nM, 375 nM and 66 nM, respectively.
For the compound `O=C(NCCNS(=O)(=O)c1ccc([N+](=O)[O-])cc1)C(=O)C(Cc1ccccc1)NC(=O)c1cc(C#Cc2ccccc2)nc2ccccc12` (single isomer, unassigned) [Example 84], the IC50 on cathepsin B was determined as 348 nM; at α-chymotrypsin, 14 nM.
As for `CCONC(=O)C(=O)C(Cc1ccccc1)NC(=O)c1cc(C#Cc2ccccc2)nc2ccccc12` (stereo not shown) [Example 103], the 50% inhibitory concentration (IC50) in assay [1] amounted to 65 nM; on cathepsin B, 435 nM; at α-chymotrypsin it was 380 nM.
For `O=C(NCCCNS(=O)(=O)c1ccccc1)C(=O)C(Cc1ccccc1)NC(=O)c1cc(C#Cc2ccccc2)nc2ccccc12` (stereo not shown) [Example 100] the same measures were 55 nM, 360 nM and 36 nM.
In the case of `O=C(NCCNS(=O)(=O)c1ccc(-c2ccccn2)s1)C(=O)C(Cc1ccccc1)NC(=O)c1cc(C#Cc2ccccc2)nc2ccccc12` (stereo not shown) [Example 86], the half-inhibitory concentration (IC50) at cathepsin B came to 1030 nM; on α-chymotrypsin, 475 nM.
